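Compound exposure: 48 hours, 5 concentrations, 96-well plates. GI50 = concentration required for 50% inhibition of growth.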 Calls of active or inactive are those of the source. Rule as the data show it: active = GI50 up to about 1.1 µM and inactive = higher.
Key:
Experiment in all cases: NCI-60 cell line screen, 48 h
[1] = tested on: HOP-92
[2] = tested on: 786-0
[3] = tested on: HCC 2998
[4] = tested on: CCRF-CEM
[5] = tested on: SF-539
[6] = tested on: OVCAR-5
[7] = tested on: MDA-MB-231
[8] = tested on: U-251
[9] = tested on: HOP-62
[10] = tested on: NCI-H23
[11] = tested on: MOLT-4
[12] = tested on: CAKI-1
[13] = tested on: HL-60
[14] = tested on: A498
[15] = tested on: K562
[16] = tested on: UO-31
[17] = tested on: NCI-H460
[18] = tested on: IGROV-1
[19] = tested on: SW-620
[20] = tested on: UACC-257

Compound | GI50 [1] | GI50 [2] | GI50 [3] | GI50 [4] | GI50 [5] | GI50 [6] | GI50 [7] | GI50 [8] | GI50 [9] | GI50 [10] | GI50 [11] | GI50 [12] | GI50 [13] | GI50 [14] | GI50 [15] | GI50 [16] | GI50 [17] | GI50 [18] | GI50 [19] | GI50 [20]
Nc1ccc2c(c1)C(=O)c1ccccc1-2 | 28.6 µM (inactive) | > 100 µM (inactive) | 93.3 µM (inactive) | 71.6 µM (inactive) | > 100 µM (inactive) | > 100 µM (inactive) | > 100 µM (inactive) | > 100 µM (inactive) | > 100 µM (inactive) | > 100 µM (inactive) | 15.7 µM (inactive) | 56.5 µM (inactive) | 30.2 µM (inactive) | 49 µM (inactive) | 51.6 µM (inactive) | 68.2 µM (inactive) | > 100 µM (inactive) | > 100 µM (inactive) | 68.1 µM (inactive) | > 100 µM (inactive)
Cc1ccc(-c2c3nc(c(-c4ccc(C)cc4)c4ccc([nH]4)c(-c4ccc(OCC5COC(C)(C)O5)cc4)c4nc(c(-c5ccc(C)cc5)c5ccc2[nH]5)C=C4)C=C3)cc1 (stereo not given) | > 100 µM (inactive) | > 31.6 µM (inactive) | > 31.6 µM (inactive) | > 10 µM (inactive) | > 31.6 µM (inactive) | > 31.6 µM (inactive) | > 31.6 µM (inactive) | > 31.6 µM (inactive) | > 31.6 µM (inactive) | > 31.6 µM (inactive) | > 31.6 µM (inactive) | > 100 µM (inactive) | > 10 µM (inactive) | 1.13 µM (inactive) | > 10 µM (inactive) | > 31.6 µM (inactive) | > 31.6 µM (inactive) | > 31.6 µM (inactive) | > 31.6 µM (inactive) | > 31.6 µM (inactive)
O=C(NC1CCCCC1NC(c1ccccc1)(c1ccccc1)c1ccccc1)C(=O)NC1CCCCC1NC(c1ccccc1)(c1ccccc1)c1ccccc1 (stereo not given) | 10.5 µM (inactive) | 53.7 µM (inactive) | > 100 µM (inactive) | > 100 µM (inactive) | 51.2 µM (inactive) | > 100 µM (inactive) | > 100 µM (inactive) | 21 µM (inactive) | 27.5 µM (inactive) | > 100 µM (inactive) | > 100 µM (inactive) | > 100 µM (inactive) | > 100 µM (inactive) | 28.9 µM (inactive) | > 100 µM (inactive) | 43.6 µM (inactive) | > 100 µM (inactive) | 69.2 µM (inactive) | > 100 µM (inactive) | > 100 µM (inactive)
COC(=O)C1Cc2c([nH]c3ccccc23)C(c2cccc(O)c2)N1 (stereo not given) | 28.4 µM (inactive) | 49.1 µM (inactive) | 25.6 µM (inactive) | 19 µM (inactive) | 33.4 µM (inactive) | 28.8 µM (inactive) | 22.3 µM (inactive) | 35 µM (inactive) | 75.9 µM (inactive) | 29.8 µM (inactive) | 31.6 µM (inactive) | 57 µM (inactive) | 22.2 µM (inactive) | 42.9 µM (inactive) | 33.1 µM (inactive) | 80 µM (inactive) | 26.3 µM (inactive) | 37.8 µM (inactive) | 24.3 µM (inactive) | 90.8 µM (inactive)
COc1cc2c(cc1C)NC(=O)/C2=C/c1c(Cl)[nH]c2cc(C)c(OC)cc12 | 10.3 µM (inactive) | 3.23 µM (inactive) | 4.11 µM (inactive) | 0.458 µM (active) | 0.395 µM (active) | 7.78 µM (inactive) | 13.2 µM (inactive) | 2.86 µM (inactive) | 10.1 µM (inactive) | 1.91 µM (inactive) | 1.45 µM (inactive) | 4.04 µM (inactive) | 0.187 µM (active) | 8.73 µM (inactive) | 4.36 µM (inactive) | 10 µM (inactive) | 0.774 µM (active) | 1.32 µM (inactive) | 3.64 µM (inactive) | 9.64 µM (inactive)
Nc1ncnc2c1ncn2[C@@H]1O[C@H](COC(c2ccccc2)(c2ccccc2)c2ccccc2)[C@@H](OC(=S)Oc2ccccc2)[C@@H]1F | 8.43 µM (inactive) | 4.58 µM (inactive) | 14 µM (inactive) | 2.5 µM (inactive) | 8.99 µM (inactive) | 19.1 µM (inactive) | 10.7 µM (inactive) | 10.2 µM (inactive) | 15.5 µM (inactive) | 3.94 µM (inactive) | 2.51 µM (inactive) | 9.73 µM (inactive) | 3.18 µM (inactive) | 18.3 µM (inactive) | 3.34 µM (inactive) | 4.16 µM (inactive) | 13.1 µM (inactive) | 3.23 µM (inactive) | 4.47 µM (inactive) | 14.6 µM (inactive)
COc1ccc(NS(=O)(=O)c2ccc(NC(NC(=O)CC(C)C)(C(F)(F)F)C(F)(F)F)cc2)nn1 | > 100 µM (inactive) | > 100 µM (inactive) | > 100 µM (inactive) | > 100 µM (inactive) | > 100 µM (inactive) | > 100 µM (inactive) | > 100 µM (inactive) | > 100 µM (inactive) | > 100 µM (inactive) | > 100 µM (inactive) | > 100 µM (inactive) | > 100 µM (inactive) | > 100 µM (inactive) | > 100 µM (inactive) | > 100 µM (inactive) | > 100 µM (inactive) | > 100 µM (inactive) | > 100 µM (inactive) | > 100 µM (inactive) | > 100 µM (inactive)
Fc1cc(F)c(F)c(S)c1F | > 100 µM (inactive) | > 100 µM (inactive) | 34.4 µM (inactive) | 29.5 µM (inactive) | > 100 µM (inactive) | > 100 µM (inactive) | 22.1 µM (inactive) | > 100 µM (inactive) | > 100 µM (inactive) | > 100 µM (inactive) | 23.8 µM (inactive) | > 100 µM (inactive) | 30.1 µM (inactive) | 17.5 µM (inactive) | 57.4 µM (inactive) | > 100 µM (inactive) | > 100 µM (inactive) | > 100 µM (inactive) | 59.7 µM (inactive) | > 100 µM (inactive)
COc1ccc(SCc2cc(OCc3ccccc3)c(OCc3ccccc3)c(OCc3ccccc3)c2)cc1 | 1.65 µM (inactive) | 1.55 µM (inactive) | 1.43 µM (inactive) | 1.72 µM (inactive) | 1.93 µM (inactive) | 1.62 µM (inactive) | 1.36 µM (inactive) | 1.77 µM (inactive) | 1.81 µM (inactive) | 1.75 µM (inactive) | 1.56 µM (inactive) | 1.6 µM (inactive) | 1.87 µM (inactive) | 2.06 µM (inactive) | 1.21 µM (inactive) | 1.76 µM (inactive) | 2.38 µM (inactive) | 1.79 µM (inactive) | 1.7 µM (inactive) | 1.71 µM (inactive)
CCC(NC(C)c1ccccc1)C(O)c1ccc(OCc2ccccc2)c(OCc2ccccc2)c1 (stereo not given) | 5.74 µM (inactive) | 13.5 µM (inactive) | 2.37 µM (inactive) | 14.2 µM (inactive) | 16.8 µM (inactive) | 13.1 µM (inactive) | 8.47 µM (inactive) | 13 µM (inactive) | 17.9 µM (inactive) | 16.4 µM (inactive) | 14.8 µM (inactive) | 11.9 µM (inactive) | 13.8 µM (inactive) | 24 µM (inactive) | 3.22 µM (inactive) | 11 µM (inactive) | 15.1 µM (inactive) | 18.6 µM (inactive) | 4.57 µM (inactive) | 4.04 µM (inactive)
CC(=O)NC1C(OCc2ccccc2)OC(CO)C(O)C1OC(C)C(=O)N[C@@H](C)C(=O)N[C@H](CCC(=O)NCCNCCNc1c2ccccc2nc2cccc([N+](=O)[O-])c12)C(N)=O (stereo not given in full) | 0.0244 µM (active) | 0.0601 µM (active) | 0.0152 µM (active) | 0.201 µM (active) | 0.0982 µM (active) | 0.336 µM (active) | 0.177 µM (active) | 0.0944 µM (active) | 0.192 µM (active) | 0.022 µM (active) | 0.0935 µM (active) | 0.0634 µM (active) | 0.308 µM (active) | 0.137 µM (active) | 0.0311 µM (active) | 0.24 µM (active) | < 0.01 µM (active) | 0.0385 µM (active) | 0.0266 µM (active) | 0.108 µM (active)
Cc1[nH]c2ccccc2c1/C=N/NC(=O)c1cccc(I)c1 | 14.4 µM (inactive) | 20.7 µM (inactive) | 18.6 µM (inactive) | 26 µM (inactive) | 18.8 µM (inactive) | 25.1 µM (inactive) | 16.7 µM (inactive) | 21.5 µM (inactive) | 17.6 µM (inactive) | 19.1 µM (inactive) | 23.3 µM (inactive) | 18.2 µM (inactive) | 26.9 µM (inactive) | 18.4 µM (inactive) | 24.5 µM (inactive) | 20.7 µM (inactive) | 17.1 µM (inactive) | 17.7 µM (inactive) | 29 µM (inactive) | 23.7 µM (inactive)
Cc1cc(C)c2c(O)cc(-c3ccc(Cl)cc3)nc2n1 | 9.27 µM (inactive) | > 46.5 µM (inactive) | 27.6 µM (inactive) | 69.3 µM (inactive) | > 100 µM (inactive) | > 100 µM (inactive) | > 27.9 µM (inactive) | 36.8 µM (inactive) | 44.8 µM (inactive) | 75 µM (inactive) | 22.5 µM (inactive) | 37.4 µM (inactive) | 23.1 µM (inactive) | 32.4 µM (inactive) | 9.79 µM (inactive) | 41.8 µM (inactive) | 25.8 µM (inactive) | 27.4 µM (inactive) | 26.6 µM (inactive) | 24.4 µM (inactive)
